Literature values, collected in US20140080923A1, “STEVIA BASED SWEETENING COMPOSITION” (STEVINOL LTD., priority 2011, published 2014).

Conditions: background statement

Row | Compound | sweetness compared with sucrose
1 | C=C1C[C@@]23CC[C@H]4[C@@](C)(CCC[C@@]4(C)C(=O)O[C@@H]4O[C@H](CO)[C@@H](O)[C@H](O)[C@H]4O)[C@@H]2CC[C@]1(O[C@@H]1O[C@H](CO)[C@@H](O)[C@H](O[C@@H]2O[C@H](CO)[C@@H](O)[C@H](O)[C@H]2O)[C@H]1O[C@@H]1O[C@H](CO)[C@@H](O)[C@H](O)[C@H]1O)C3 [rebaudioside A] | ~300 times sweeter than sucrose
2 | C=C1C[C@@]23CC[C@H]4[C@@](C)(CCC[C@@]4(C)C(=O)O[C@@H]4O[C@H](CO)[C@@H](O)[C@H](O)[C@H]4O)[C@@H]2CC[C@]1(O[C@@H]1O[C@H](CO)[C@@H](O)[C@H](O)[C@H]1O[C@@H]1O[C@H](CO)[C@@H](O)[C@H](O)[C@H]1O)C3 [stevioside] | ~300 times sweeter than sucrose
